Laboratory results as given in PMC6927504, “Screening of House Dust from Chinese Homes for Chemicals with Liver X Receptors Binding Activities and Characterization of Atherosclerotic Activity Using an in Vitro Macrophage Cell Line and ApoE^−/− Mice” (Environmental Health Perspectives, 2019).

Test system: ABCG1
Assay: qRT-PCR of ABCG1 in peritoneal macrophages isolated from exposed C57BL/6 mice
Assay type: in vivo, mouse
Conditions: 200 mg/kg BW oral gavage for 7 d, control set to 1, p<0.01
Description: Total RNA was isolated from RAW264.7 cells and mouse peritoneal macrophages using TRIzol reagent according to the manufacturer’s instructions. Then a Nanovue Plus™ spectrophotometer (GE Healthcare Life Science) was used to analyze the concentration, quality, and purity of the RNA. Total RNA ( 1μg ) was mixed with oligo deoxythymine (dT) ( 1μL ) at 70°C for 5 min and then combined with a mixture containing Moloney murine leukemia virus (MMLV) reverse transcriptase ( 1μL ), deoxy-ribonucleoside triphosphate (dNTP) ( 1.25μL ), Recombinant RNasin® Ribonuclease Inhibitor (Promega) ( 0.65μL ), and MMLV buffer ( 5μL ) at 42°C for 60 min. The SYBR® Green PCR Kit (TOYOBO) was used for RT-PCR analysis. Real-time fluorescence detection was performed using the StepOnePlus™ sequence detection system (Applied Biosystems). […]
All experiments related to animals were approved by the institutional animal care and use committee of Peking University and followed the guidelines for animal experiments of the university as well as for experimental animals in China. […] Body weight (BW) was measured every week during the dosing period. […] Considering that this study assessed the effects of short-term exposure to TPHP, whereas humans are exposed to TPHP over a lifelong period, the present study used exposure doses that were higher than that of human exposure from house dust. […]

`O=P(Oc1ccccc1)(Oc1ccccc1)Oc1ccccc1` [TPHP, triphenyl phosphate] was tested. Which “ABCG1 gene expression in peritoneal macrophages relative to control” value did it give?
The value was 0.30±0.08 fold.
